Data published in US20160089377A1, “THERAPEUTIC TARGETING OF THE MTOR PATHWAY IN NEURODEVELOPMENTAL AND NEUROPSYCHIATRIC DISEASE” (THE TRUSTEES OF COLUMBIA UNIVERISTY IN THE CITY OF NEW YORK, priority 2013, published 2016).
“Also recorded” adds a separate entry of the source.

Tests used:
[1] = tested on: pyramidal cells of Cntnap2 (Caspr2) mutant mice; assay: Soma size quantitation of pyramidal cells after WYE125132 treatment; format: in vivo
Excerpt: In order to assess whether we could reverse or prevent the cellular abnormalities (i.e., enlarged pyramidal cell size), we treated with WYE125132 (‘Tx’ in FIG. 12) or vehicle (‘veh’ in FIG. 12) Caspr2^+/−/Thy1-YFP/H and Caspr2^−/−/Thy-1-YFP/H mice and WT littermates also positive for YFP/H for the entire period P12-P35. The mice were perfused and subsequently fixed with 4% PFA and sectioned coronally at 16 microns. Subsequently, 200× images were taken using an epifluorescent microscope of somatosensory and auditory cortex—a total of 15 images per animal/cortical region. The cell somata were traced on Photoshop to quantify pixels. We then converted the pixels to square microns. For the analysis listed here, Caspr2^+/−/Thy1-YFP/H and
Cntnap2 mutant and WT mice were obtained from heterozygous crossings and were born with the expected Mendelian frequencies. […]
WYE125132 (Chemscene) was administered by a daily p.o. gavaging in a volume of 10 ml/kg. […] For the two-photon and cell size quantitation studies, mice were gavaged from P12 to p35, after they were
Soma Size Quantitation. […]
perfused with PBS and then 4% PFA and subsequently post-fixed in 4% PFA for 1 hour at 4° C. […] Sections containing auditory and somatosensory cortices were analyzed. […] Soma size was determined by manually tracing pyramidal cell somata and measuring pixel number per selection. […] For each animal, 90 to 140 somata were measured. […]

[2] = tested on: glutamate receptor subunits GluR1, GluR2, NR1, NR2A, NR2B and mGluR5; assay: Immunoblot of glutamate receptor subunits in PFC homogenates after treatment; format: in vivo, mice; conditions: for expression of glutamate receptor subunits altered in mutants: Cntnap2-/- and Cntnap2+/- mice aged 5-8 months
Procedure: euthanized. For the electrophysiology and western blot rescue experiments, adult mice were gavaged for 14 consecutive days after which they were euthanized.
Western blot analysis of mouse brain tissue and immunocytochemistry in human brain tissue was performed using standard methods.
We also evaluated whether treatment with WYE126132 reverses the alterations in the expression of the glutamate receptor subunits found in Cntnap2 mutant mice. Mice aged 5-8 months were treated for consecutive days.

[3] = tested on: dendritic spines in the frontal association cortex; assay: In vivo transcranial two-photon microscopy of dendritic spine formation and elimination; set-up: species or system mice
Excerpt: In order to assess whether we could reverse or prevent the abnormalities in spine dynamics in Caspr2 mutants, we treated Caspr2^+/−/Thy1-YFP/H, Caspr2^−/−/Thy-1-YFP/H mice, and WT littermates also positive for YFP/H from P12-P32 with either WYE125132 or with vehicle. One-month old (P30±1) male mice were used in the experiments. Spine formation and elimination were examined by imaging the mouse cortex through a thinned-skull window as described previously. Briefly, 1-mo old male mice expressing YFP were anaesthetized with ketamine and xylazine (intraperitoneal; 20 mg/ml and 3 mg/ml, respectively, in saline; 6 μl per gram of body weight). Thinned-skull windows were made in head-fixed mice with high-speed microdrills. Skull thickness was reduced to about 20 μm. A twophoton microscope tuned to 920 nm (×60 water immersion lens; numerical aperture,1.1) was used to acquire images. For re-imaging of the same region, thinned regions were identified on the basis of the maps of the brain vasculature. Microsurgical blades were used to re-thin the region of interest until a clear image could be obtained. The area of the imaging region was 200 μm×200 μm in the frontal association cortex. The centers of the imaging regions were as follows: +2.8 mm bregma, +1.0 mm midline.
(§1) WYE125132 (Chemscene) was administered by a daily p.o. gavaging in a volume of 10 ml/kg. For all behavioral experiments, dams were treated from PO to P12 after which individual pups were gavaged on a daily basis going forward. Mice also received drug treatment on the days of testing, at least 1 hour prior the experiment. For the two-photon and cell size quantitation studies, mice were gavaged from P12 to p35, after they were
One-month-old (P30±1) male mice were used in the experiments. Spine formation and elimination were examined by imaging the mouse frontal association cortex through a thinned-skull window as described previously (Lai, 2012).
To examine whether we could reverse the abnormalities in dendritic spine dynamics in the frontal association cortex, we gavaged the mice daily from P12 to P32 with WYE125132 versus vehicle.

Cntnap2 mutant mice = assay: Novel Object Recognition (NOR) test; format: in vivo; conditions: WYE125132-treated Cntnap2-/- mice, P<0.05
Procedure: Cntnap2 mutant and WT mice were obtained from heterozygous crossings and were born with the expected Mendelian frequencies. The three obtained genotypes were housed together. Mice were treated with p.o. gavaging once per day with either WYE125132 (10 mg/kg) or vehicle. All procedures involving animals were performed in accordance with the Columbia University/New York State Psychiatric Institute animal research committee.
as §1
Mice were marked with ear tagging. Experimenters were blinded to the genotype during testing. Behavioral tests were performed in the New York State Psychiatric Institute behavioral test core facility.
We examined whether we could reverse cognitive deficits in Cntnap2 mutant mice. We subjected Cntnap2 mutant mice to the Novel Object Recognition (NOR) test, a behavioral task that requires precise cognitive control. […]

Compound: CNC(=O)Nc1ccc(-c2nc(N3CC4CCC(C3)O4)c3cnn(C4CCC5(CC4)OCCO5)c3n2)cc1 [WYE125132]
- enlarged pyramidal cell soma size ([1]; Cntnap2+/- and Cntnap2-/- (Caspr2) mutant mice, daily p.o. gavage 10 mg/kg, P12 to P33-36 (about 3 weeks), 10 mg/kg): completely reverses the enlarged pyramidal cell size; also recorded: complete reversal of the pyramidal cell enlargement phenotype; also recorded: entirely rescued
- soma size in WT animals ([1]; WT mice, compound versus vehicle): no effect on soma size
- expression of glutamate receptor subunits altered in mutants [2]: entirely reversed; also recorded: complete normalization of all glutamate receptor subunits
- expression of glutamate receptor subunits altered in mutants ([2]; listed as WYE126132): complete normalization of all glutamate receptor subunits
- expression of glutamate receptor subunits in WT animals ([2]; WT mice): no effects
- spine formation (in words) ([3]; Caspr2+/-/Thy1-YFP/H mice, P12-P32, P<0.0058): increase in spine formation
- spine elimination (in words) ([3]; Caspr2+/-/Thy1-YFP/H mice, P12-P32, versus vehicle, P<0.006): dramatic prevention of spine elimination
- spine elimination (in words) ([3]; Caspr2-/-/Thy-1-YFP/H mice, P12-P32, versus vehicle, P<0.04): statistically significant prevention
- rate of spine elimination ([3]; Cntnap2+/- mice gavaged daily P12 to P32 with WYE125132): 8.5%±2.0%
- rate of spine elimination ([3]; Cntnap2-/- mice gavaged daily P12 to P32 with WYE125132): 9.5%±1.6%
- spine elimination (in words) ([3]; both Cntnap2+/- and Cntnap2-/- mutant mice, P12 to P32): reduced back to levels seen in the WT littermates; also recorded: rescues excessive spine elimination
- deficit in the Novel Object Recognition test (Cntnap2 mutant mice): rescue of this phenotype; also recorded: rescue of a deficit
